What was measured:
Format in all cases: in vivo
Galium aparine (GALAP) = assay: greenhouse post-emergence herbicidal activity on GALAP; details: solo application; for inhibition at 5 g/ha: 5 g ai/ha
Excerpt: (§1) For the post-emergence treatment, the test plants were first grown to a height of 3 to 20 cm, depending on the plant habit, and only then treated. Here, the herbicidal compositions were suspended or emulsified in water as distribution medium and sprayed using finely distributing nozzles.
(§2) The respective herbicides B and/or safener were formulated as 10% by weight strength suspension concentrate and introduced to the spray liquor with the amount of solvent system used for applying the active compound. Herbicides A, C and/or safener were used as commercially available formulations and introduced to the spray liquor with the amount of solvent system used for applying the active compound. In the examples, the solvent used was water.
(§3) The test period extended over 21 days. During this time, the plants were tended, and their response to the treatments with active compound was evaluated.
(§4) The evaluation for the damage caused by the chemical compositions was carried out using a scale from 0 to 100%, compared to the untreated control plants. Here, 0 means no damage and 100 means complete destruction of the plants.
(§5) The value E, which is to be expected if the activity of the individual compounds is just additive, was calculated using the method of S. R. Colby (1967) “Calculating synergistic and antagonistic responses of herbicide combinations”, Weeds 15, p. 22 ff. For two component mixtures the value E was calculated by the following formula E=X+Y−(X·Y/100)
(§6) For three component mixtures the value E was calculated by the following formula E=X+Y+Z−(XY+XZ+YZ)/100+(X·YZ/10000) where X=effect in percent using herbicide A at an application rate a; • Y=effect in percent using herbicide B at an application rate b; • Z=effect in percent using herbicide C at an application rate c; • E=expected effect (in %) of A+B at application rates a+b. or • E=expected effect (in %) of A+B+C at application rates a+b+c.
(§7) If the value observed in this manner is higher than the value E calculated according to Colby, a synergistic effect is present.
(§8) Tables 1 to 12 relate to the herbicidal activity of the individual actives and of their combinations in post-emergence application assessed 20 DAT.

[1] = test system: Digitaria sanguinalis (DIGSA); assay: greenhouse post-emergence herbicidal activity on DIGSA; details: solo application
Excerpt: as §1, §2, §3, §4, §5, §6, §7, §8

[2] = test system: Chenopodium album (CHEAL); assay: greenhouse post-emergence herbicidal activity on CHEAL; details: solo application
Excerpt: as §1, §2, §3, §4, §5, §6, §7, §8

[3] = test system: Alopecurus myosuroides (ALOMY); assay: greenhouse post-emergence herbicidal activity on ALOMY; details: solo application
Excerpt: as §1, §2, §3, §4, §5, §6, §7, §8

[4] = test system: Matricaria inermis (MATIN); assay: greenhouse post-emergence herbicidal activity on MATIN; details: solo application
Excerpt: as §1, §2, §3, §4, §5, §6, §7, §8

[5] = test system: Lolium multiflorum (LOLMU); assay: greenhouse post-emergence herbicidal activity on LOLMU; details: solo application; for inhibition at 5 g/ha: 5 g ai/ha
Excerpt: as §1, §2, §3, §4, §5, §6, §7, §8

[6] = test system: Abutilon theophrasti (ABUTH); assay: greenhouse post-emergence herbicidal activity on ABUTH; details: solo application; for inhibition at 5 g/ha: 5 g ai/ha
Excerpt: as §1, §2, §3, §4, §5, §6, §7, §8

[7] = test system: Polygonum convolvulus (POLCO); assay: greenhouse post-emergence herbicidal activity on POLCO; details: solo application
Excerpt: as §1, §2, §3, §4, §5, §6, §7, §8

Setaria viridis (SETVI) = assay: greenhouse post-emergence herbicidal activity on SETVI; details: 480 h, solo application, 100 g ai/ha, read-out: % activity 20 DAT
Excerpt: as §1, §2, §3
(§9) The evaluation for the damage caused by the chemical compositions was carried out using a scale from 0 to 100%, compared to the untreated control plants. […]
(§10) The value E, which is to be expected if the activity of the individual compounds is just additive, was calculated using the method of S. R. Colby (1967) “Calculating synergistic and antagonistic responses of herbicide combinations”, Weeds 15, p. […] For two component mixtures the value E was calculated by the following formula E=X+Y−(X·Y/100)
as §6, §7, §8

[8] = test system: Amaranthus retroflexus (AMARE); assay: greenhouse post-emergence herbicidal activity on AMARE; details: 480 h, solo application, 100 g ai/ha, read-out: % activity 20 DAT
Excerpt: as §1, §2, §3, §9, §10, §6, §7, §8

[9] = test system: Echinochloa crus-galli (ECHCG); assay: greenhouse post-emergence herbicidal activity on ECHCG; details: solo application, 1.56 g ai/ha
Excerpt: as §1, §2, §3, §9, §10, §6, §7, §8

[10] = Galium aparine, 480 h, read-out: % activity 20 DAT
[11] = Lolium multiflorum, 480 h, read-out: % activity 20 DAT
[12] = Abutilon theophrasti, 480 h, read-out: % activity 20 DAT

SMILES: COCc1cnc(C2=NC(C)(C(C)C)C(=O)N2)c(C(=O)O)c1 (stereo not shown) [imazamox]
- inhibition at 5 g/ha (Galium aparine (GALAP); [10]): 20%
- inhibition at 10 g/ha (Galium aparine (GALAP); Galium aparine, 480 h, 10 g ai/ha, read-out: % activity 20 DAT): 30%
- inhibition at 10 g/ha ([1]; Digitaria sanguinalis, 480 h, 10 g ai/ha, read-out: % activity 20 DAT): 20%
- inhibition at 5 g/ha ([2]; Chenopodium album, 480 h, 5 g ai/ha, read-out: % activity 20 DAT): 15%
- inhibition at 10 g/ha ([2]; Chenopodium album, 480 h, 10 g ai/ha, read-out: % activity 20 DAT): 30%
- inhibition at 10 g/ha ([3]; Alopecurus myosuroides, 480 h, 10 g ai/ha, read-out: % activity 20 DAT): 30%
- inhibition at 5 g/ha ([4]; Matricaria, 480 h, 5 g ai/ha, read-out: % activity 20 DAT): 25%
- inhibition at 5 g/ha [5, 11]: 40%
- inhibition at 10 g/ha ([5]; Lolium multiflorum, 480 h, 10 g ai/ha, read-out: % activity 20 DAT): 60%
- inhibition at 5 g/ha [6, 12]: 50%

SMILES: Cc1cnc(C2=NC(=O)C(C)(C(C)C)N2)c(C(=O)O)c1 (stereo not shown) [imazapic]
- inhibition at 5 g/ha (Galium aparine (GALAP); [10]): 55%
- inhibition at 5 g/ha ([1]; Digitaria sanguinalis, 480 h, 5 g ai/ha, read-out: % activity 20 DAT): 50%
- inhibition at 20 g/ha ([2]; Chenopodium album, 480 h, 20 g ai/ha, read-out: % activity 20 DAT): 40%
- inhibition at 20 g/ha ([3]; Alopecurus myosuroides, 480 h, 20 g ai/ha, read-out: % activity 20 DAT): 45%
- inhibition at 5 g/ha [5, 11]: 60%
- inhibition at 5 g/ha [6, 12]: 60%

SMILES: CS(=O)(=O)c1cc(C(F)(F)F)ccc1C(=O)c1cnoc1C1CC1 [isoxaflutole]
- inhibition at 6.25 g/ha ([1]; Digitaria sanguinalis, 480 h, 6.25 g ai/ha, read-out: % activity 20 DAT): 15%
- inhibition at 6.25 g/ha ([2]; Chenopodium album, 480 h, 6.25 g ai/ha, read-out: % activity 20 DAT): 75%
- inhibition at 6.25 g/ha ([3]; Alopecurus myosuroides, 480 h, 6.25 g ai/ha, read-out: % activity 20 DAT): 0%
- inhibition at 25 g/ha ([7]; Fallopia convolvulus, 480 h, 25 g ai/ha, read-out: % activity 20 DAT): 45%
- inhibition at 6.25 g/ha ([6]; Abutilon theophrasti, 480 h, 6.25 g ai/ha, read-out: % activity 20 DAT): 55%

SMILES: CCC(CC)Nc1c([N+](=O)[O-])cc(C)c(C)c1[N+](=O)[O-] [pendimethalin]
- inhibition at 100 g/ha (Setaria viridis (SETVI)): 30%
- inhibition at 400 g/ha ([3]; Alopecurus myosuroides, 480 h, 400 g ai/ha, read-out: % activity 20 DAT): 40%
- inhibition at 100 g/ha ([4]; Matricaria, 480 h, 100 g ai/ha, read-out: % activity 20 DAT): 0%
- inhibition at 800 g/ha ([4]; Matricaria, 480 h, 800 g ai/ha, read-out: % activity 20 DAT): 0%
- inhibition at 200 g/ha ([5]; Lolium multiflorum, 480 h, 200 g ai/ha, read-out: % activity 20 DAT): 30%
- inhibition at 100 g/ha [8]: 75%

SMILES: O=C(Nc1ccc(F)cc1)c1cccc(Oc2cccc(C(F)(F)F)c2)n1 [picolinafen]
- % activity 20 DAT (Galium aparine (GALAP); 6.25 g ai/ha): 30%
- % activity 20 DAT ([1]; 6.25 g ai/ha): 30%
- % activity 20 DAT ([1]; 12.5 g ai/ha): 45%
- % activity 20 DAT ([2]; 12.5 g ai/ha): 30%
- % activity 20 DAT ([3]; 6.25 g ai/ha): 0%
- % activity 20 DAT ([3]; 25 g ai/ha): 0%
- % activity 20 DAT ([7]; 50 g ai/ha): 80%
- % activity 20 DAT ([4]; 50 g ai/ha): 60%
- % activity 20 DAT ([5]; 12.5 g ai/ha): 10%
- % activity 20 DAT ([6]; 6.25 g ai/ha): 30%
- % activity 20 DAT ([6]; 25 g ai/ha): 60%

SMILES: CC(C)N(C)S(=O)(=O)NC(=O)c1cc(-n2c(=O)cc(C(F)(F)F)n(C)c2=O)c(F)cc1Cl [saflufenacil]
- % activity 20 DAT (Galium aparine (GALAP); 3.13 g ai/ha): 30%
- % activity 20 DAT ([1]; 1.56 g ai/ha): 0%
- % activity 20 DAT ([2]; 1.56 g ai/ha): 40%
- % activity 20 DAT ([3]; 1.56 g ai/ha): 0%
- % activity 20 DAT ([3]; 3.13 g ai/ha): 0%
- % activity 20 DAT [9]: 0%
- % activity 20 DAT ([7]; 1.56 g ai/ha): 45%
- % activity 20 DAT ([7]; 3.13 g ai/ha): 55%
- % activity 20 DAT ([4]; 1.56 g ai/ha): 20%
- % activity 20 DAT ([4]; 3.13 g ai/ha): 55%
- % activity 20 DAT ([6]; 1.56 g ai/ha): 45%

— patent US11206830B2, “Herbicidal composition comprising glufosinate or a salt thereof and pyroxasulfone” (BASF SE, priority 2008, dated 2021)
